Experimental data published in patent publication US20120189579A1 (priority 2009, published 2012).

Key:
[1] = biological target: T1, HCV NS5BΔ21/Gal4-DBD fusion protein (Hepatitis C virus genotype 1b, UniProt Q9WMX2); experiment: 3D-SCREEN assay (NS5B reporter gene assay in Huh-7 cells); type: cell-based, HCV genotype 1b
T1 construct: The protein was expressed with a 21 amino acid C-terminal deletion to remove transmembrane domain; expressed in transfected cells; host or cells: Huh-7 (transient transfection)
Method: (§1) Human Hepatoma Huh-7 cell line was maintained in DMEM/HAMF-12 supplemented with 10% SVF, 4 mM glutamine, […] Na pyruvate, 1% penistreptomycine. HCV replicon containing Huh-7 cell lines Huh-9.13 and Luc Neo ET (Reblikon) were maintained in DMEM supplemented with 10% SVF, 2 mM glutamine, and 1×NEAA, 100 U/ml penicillin, and 100 μg/ml streptomycine. Replicon cells were maintained in medium supplemented with 1 mg/ml G418 for replicon Huh-9.13 and 0.5 mg/ml for Luc Neo et replicon unless indicated otherwise. Huh-7 and HCV replicon cell lines were maintained at 37° C. and 5% CO2 in a humidified atmosphere. Cells were dissociated at sub confluence with trypsin EDTA 1×.
cDNA encoding HCV NS5B genotype 1b, was cloned in frame with Gal4-DNA Binding Domain. The protein was expressed with a 21 amino acid C-terminal deletion to remove transmembrane domain. Expression of NS5BΔ21/Gal4 DBD fusion protein was under control of SV40 early promoter. 3D-Sensor peptide was cloned in frame with VP16 activation domain. Expression of 3D-Sensor/VP16 AD fusion protein was under control of CMV promoter. Expression of the firefly luciferase reporter gene was inducible by the [Target protein/conformation sensitive peptide/VP16AD] complex.
It is a single-target, cell based assay. Briefly, expression of a reporter gene depends on the interaction of a short peptide, thereafter named 3D-Sensor, and native conformation of the target protein. Whenever the conformation of the target protein is modified, interaction between 3D-sensor and target protein is disrupted and reporter gene is not expressed anymore. Conformation modifiers are identified by loss of expression of reporter gene. NS5B 3D-Screen platform was generated in Huh-7 cell lines by transient transfection of three expression vectors encoding respectively • (i) HCV NS5BΔ21/Gal4-DBD fusion protein • (ii) the 3D-sensor peptide 14/VP16 fusion protein • (iii) the firefly luciferase reporter gene
Huh-7 cells were dissociated the day before transfection and seeded in T175 flasks at a density of 10^7 cells in 30 ml culture medium. Equimolar ratios of vectors were transfected in cell according to optimized jetPEI transfection protocol (PolyPlus Transfection, Illkirch, France) and 10 μg total DNA/10^6 cells. Transfection was performed for 2 hours at 37° C. and 5% CO2 in a humidified atmosphere. After two hours cells were dissociated and seeded in 96 wells plates at a density of 25,000 cells per well and 90 μl culture medium. 10 μl of compounds to be tested were added 2 hours after seeding. Final concentration of DMSO was 1%. Cells were incubated in the presence of compounds for 24 hours after which expression of firefly luciferase reporter gene was quantified. Briefly, culture medium was removed and cells were lysed by addition of 100 μl of lysis buffer containing 125 mM Tris Phosphate ph 7.8, 10 mM EDTA, 5 mM DTT, 50% glycerol and 5% Triton. Plates were vortexed 10 min at 1300 rpm. Cell lysat was transferred in OpaqueWhite Assay 96 well Flat Bottom plates. 100 μl of luciferin solution 1× were added to each well. Luciferin solution contained 40 mM Tris Phosphate ph 7.8, 0.2 mM EDTA, 67 mM DTT, 2.14 mM MgCl2, 5.4 mM MgSO4, 4.7×10^−4 M luciferin, 5.3×10^−4 M ATP and 2.7×10^−4 M Acetyl co enzyme A. Luminescence was immediately measured with Berthold Microlumat Plus LB 96V luminometer with an integration of 0.5 sec. Inhibition was calculated using the formula: % inhibition=(1−(read/average max))*100. Average max=signal in absence of compound

[2] = system: HCV replicon Luc Neo ET in Huh-7 cells; experiment: Replicon assay (Luc Neo ET replicon); type: cell-based; details: Hepatitis C virus, 72 hours with compound, firefly luciferase reporter, read-out: EC50—Replicon LucneoET
Method: as §1
Replicon Luc Neo ET is a bicistronic expression constructs (Lohmann et al, 1999, Science 285, 110-113). In brief, the structural genes of the HCV genome were replaced by heterologous sequences; the gene encoding the neomycin phosphotransferase (NPT) and the internal ribosome entry site (IRES) of the encephalomyocarditis virus (EMCV). The bicistronic construct is therefore composed of the following elements: HCV-IRES nucleotides 1-389, the NPT gene, the EMCV-IRES directing translation of downstream HCV sequences from NS2 or NS3 up to the authentic 3′ end of the genome. HCV Polyprotein harbours the cell culture adaptive mutations E1202G, T1280I, K1846T. G418-resistance is only possible with cells containing high amounts of replicon.
Cells were dissociated the day before addition of compounds and seeded in 96 well-plates at a final concentration of 77 777.77 cells·ml^−1·well^−2 in 90 μl final volume of culture medium per well and were maintained at 37° C. and 5% CO2 in a humidified atmosphere for 24 hours. 10 μl of compounds to be tested were added 24 hours after seeding. Final concentration of DMSO was 1%. Cells were incubated in the presence of compounds for 72 hours after which expression of firefly luciferase reporter gene was quantified. Briefly, culture medium was removed and cells were lysed by addition of 100 μl of lysis buffer containing 125 mM Tris Phosphate ph 7.8, 10 mM EDTA, 5 mM DTT, 50% glycerol and 5% Triton. Plates were vortexed 10 min at 1300 rpm. Cell lysat was transferred in OpaqueWhite Assay 96 well Flat Bottom plates. 100 μl of luciferin solution 1× were added to each well. Luciferin solution contained 40 mM Tris Phosphate ph 7.8, 0.2 mM EDTA, 67 mM DTT, 2.14 mM MgCl2, 5.4 mM MgSO4, 4.7×10^−4 M luciferin, 5.3×10^−4 M ATP and 2.7×10^−4 M Acetyl co enzyme A. Luminescence was immediately measured with Berthold Microlumat Plus LB 96V luminometer with an integration of 0.5 sec Inhibition was calculated using the formula:
% inhibition=1−[(RLUsample−RLUbackground)/(RLUsignal−RLUbackground)]

SMILES | EC50 [1] [µM] | EC50 [2] [µM] | melting point [°C]
COc1ccc(C(=O)C2=C(O)C(=O)N(c3nnc(C)s3)C2c2ccc(C(C)(C)C)cc2)cc1 (stereo not shown) [Example 3] | 7 | 15 | –
Cc1ccc(C(=O)C2=C(O)C(=O)N(c3ncc(S(=O)(=O)c4ccc([N+](=O)[O-])cc4)s3)C2c2ccc(C(C)C)cc2)cc1 (stereo not shown) [Example 10] | 2 | 8 | –
COc1ccc(C(=O)C2=C(O)C(=O)N(c3nnc(C(F)(F)F)s3)C2c2ccc(C(C)(C)C)cc2)cc1 (stereo not shown) [Example 26, 5-(4-tert-butyl-phenyl)-3-hydroxy-4-(4-methoxy-benzoyl)-1-(5-trifluoromethyl-[1,3,4]thiadiazol-2-yl)-1,5-dihydro-pyrrol-2-one] | 14 | – | 271
COc1ccc(C(=O)C2=C(O)C(=O)N(c3nnc(C)s3)C2c2ccc(Cl)c(Cl)c2)cc1 (stereo not shown) [Example 31] | – | 33 | –
COc1ccc(C(=O)C2=C(O)C(=O)N(c3nnc(C(C)C)s3)C2c2ccc(C(C)(C)C)cc2)cc1 (stereo not shown) [Example 35, 5-(4-tert-butyl-phenyl)-3-hydroxy-1-(5-isopropyl-[1,3,4]thiadiazol-2-yl)-4-(4-methoxy-benzoyl)-1,5-dihydro-pyrrol-2-one] | 4 | – | 257
Cc1ccc(C(=O)C2=C(O)C(=O)N(c3ncc(S(=O)(=O)N(C)C)s3)C2c2ccc(C(C)C)cc2)cc1 (stereo not shown) [Example 39, 2-[3-hydroxy-5-(4-isopropyl-phenyl)-4-(4-methyl-benzoyl)-2-oxo-2,5-dihydro-pyrrol-1-yl]-thiazole-5-sulfonic acid dimethylamide] | 16 | – | 237 to 241
CC(C)(C)c1ccc(C2C(C(=O)c3ccc(Cl)cc3)=C(O)C(=O)N2c2ncc(S(=O)(=O)c3ccc([N+](=O)[O-])cc3)s2)cc1 (stereo not shown) [Example 40] | 5 | 28 | –
Cc1ccc(C(=O)C2=C(O)C(=O)N(c3ncc(S(=O)(=O)N4CCOCC4)s3)C2c2ccc(C(C)C)cc2)cc1 (stereo not shown) [Example 41, 3-hydroxy-5-(4-isopropyl-phenyl)-4-(4-methyl-benzoyl)-1-[5-(morpholine-4-sulfonyl)-thiazol-2-yl]-1,5-dihydro-pyrrol-2-one] | 16.3 | – | 247 to 252
Cc1ccc(C(=O)C2=C(O)C(=O)N(c3ncc(S(=O)(=O)c4ccc([N+](=O)[O-])cc4)s3)C2c2cccc(Cl)c2)cc1 (stereo not shown) [Example 51] | 7 | 10 | –
Cc1ccc(C(=O)C2=C(O)C(=O)N(c3nnc(C)s3)C2c2ccc(C(C)C)cc2)cc1 (stereo not shown) [Example 54] | 13 | 11 | –
CN(C)c1ccc(C(=O)C2=C(O)C(=O)N(c3ncc(S(=O)(=O)c4ccc([N+](=O)[O-])cc4)s3)C2c2ccc(C(C)(C)C)cc2)cc1 (stereo not shown) [Example 55, 5-(4-tert-butyl-phenyl)-4-(4-dimethylamino-benzoyl)-3-hydroxy-1-[5-(4-nitro-benzenesulfonyl)-thiazol-2-yl]-1,5-dihydro-pyrrol-2-one] | 4 | 7 | –
CCc1ccc(C2C(C(=O)c3ccco3)=C(O)C(=O)N2c2ncc(S(=O)(=O)c3ccc([N+](=O)[O-])cc3)s2)cc1 (stereo not shown) [Example 104, 5-(4-ethyl-phenyl)-4-(furan-2-carbonyl)-3-hydroxy-1-[5-(4-nitro-benzenesulfonyl)-thiazol-2-yl]-1,5-dihydro-pyrrol-2-one] | < 10 | < 10 | –
O=C(O)c1ccc(C2C(C(=O)c3ccco3)=C(O)C(=O)N2c2ncc(S(=O)(=O)c3ccc([N+](=O)[O-])cc3)s2)cc1 (stereo not shown) [Example 112, 4-{3-(furan-2-carbonyl)-4-hydroxy-1-[5-(4-nitro-benzenesulfonyl)-thiazol-2-yl]-5-oxo-2,5-dihydro-1H-pyrrol-2-yl}-benzoic acid] | < 10 | < 10 | –
CC(C)c1ccc(C(=O)C2=C(O)C(=O)N(c3ncc(S(=O)(=O)c4ccc([N+](=O)[O-])cc4)s3)C2c2ccc(OC(F)(F)F)cc2)cc1 (stereo not shown) [Example 125, 3-hydroxy-4-(4-isopropyl-benzoyl)-1-[5-(4-nitro-benzenesulfonyl)-thiazol-2-yl]-5-(4-trifluoromethoxy-phenyl)-1,5-dihydro-pyrrol-2-one] | < 10 | < 10 | 276 to 278
CC(C)c1ccc(C(=O)C2=C(O)C(=O)N(c3ncc(S(=O)(=O)c4ccc([N+](=O)[O-])cc4)s3)C2c2ccc(C(F)(F)F)cc2)cc1 (stereo not shown) [Example 126, 3-hydroxy-4-(4-isopropyl-benzoyl)-1-[5-(4-nitro-benzenesulfonyl)-thiazol-2-yl]-5-(4-trifluoromethyl-phenyl)-1,5-dihydro-pyrrol-2-one] | < 10 | – | 300 to 302
Cc1nnc(N2C(=O)C(O)=C(C(=O)c3ccc(C(C)C)cc3)C2c2ccc(OC(F)(F)F)cc2)s1 (stereo not shown) [Example 127, 3-hydroxy-4-(4-isopropyl-benzoyl)-1-(5-methyl-[1,3,4]thiadiazol-2-yl)-5-(4-trifluoromethoxy-phenyl)-1,5-dihydro-pyrrol-2-one] | < 1 | < 1 | 260
Cc1cnc(N2C(=O)C(O)=C(C(=O)c3ccc(C(C)C)cc3)C2c2ccc(C(F)(F)F)cc2)s1 (stereo not shown) [Example 129, 3-hydroxy-4-(4-isopropyl-benzoyl)-1-(5-methyl-thiazol-2-yl)-5-(4-trifluoromethyl-phenyl)-1,5-dihydro-pyrrol-2-one] | < 10 | < 10 | –
CC(C)c1ccc(C(=O)C2=C(O)C(=O)N(c3ncc(Sc4ccc([N+](=O)[O-])cc4)s3)C2c2ccc(OC(F)(F)F)cc2)cc1 (stereo not shown) [Example 131, 3-hydroxy-4-(4-isopropyl-benzoyl)-1-[5-(4-nitro-phenylsulfanyl)-thiazol-2-yl]-5-(4-trifluoromethoxy-phenyl)-1,5-dihydro-pyrrol-2-one] | 13 | – | 238
